This test has as its system 519858-162-T-J1-PDC spheroid growth inhibition. Kind of test: Anticancer human tumor 519858-162-T-J1-PDC patient-derived colon adenocarcinoma cell line growth inhibition [TAK]. As to conditions: spheroids with HUVEC and MSC; for viability, T/C: stronger effect = lower value. The text has this:
Combinatorial screen of targeted agents with TAK-243 and ipatasertib in multi-cell type tumor spheroids
A high-throughput screen of multi-cell type tumor spheroids was designed to identify active combinations of targeted small molecules and TAK-243 or ipatasertib. Complex spheroids include a stromal component modeled by human endothelial cells (HUVEC) and fibroblasts modeled by human mesenchymal stem cells (MSCs). The concentration ranges selected for each drug and investigational agent were based upon clinically achievable concentrations if the clinical Cmax of the agent was known.
Compounds. The drugs and investigational agents: TAK-243 (785004), ipatasertib (767898), everolimus (733504), selumetinib (741078), bortezomib (756655), trametinib (758246), ixazomib (758254), vemurafenib (761431), dabrafenib (764134), sapanisertib (764658), alpelisib (765974), and copanlisib (816437), were obtained from the National Cancer Institute (NCI) Developmental Therapeutics Program Chemical Repository. The FDA-approved anticancer drug set is available from the NCI Developmental Therapeutics Program. […] The stock solutions were prepared in dimethyl sulfoxide (DMSO, Sigma-Aldrich, St. Louis, MO, cat. D2650) at 800-fold the tested concentration and stored at -70 degrees C prior to their use. All drugs and investigational agents were tested over a range starting from a high concentration at or near the clinical Cmax and decreasing in half-log increments. If the clinical Cmax for an agent had not been determined, the highest concentration tested was 10 microM.
NCI60 Cell Culture. NCI60 cell lines were obtained from the NCI Developmental Therapeutics Program Tumor Repository. For each lot of cells, the Repository performed Applied Biosystems AmpFLSTR Identifiler testing with PCR amplification to confirm consistency with the published Identifier STR profile for each cell line. Cells were kept in continuous culture for no more than 20 passages. The optimal seeding densities for each of the cell lines at each time point assessed were determined prior to performing the concentration response studies. Briefly, the NCI60 human tumor lines were grown as monolayers in RPMI 1640 medium supplemented with 10% FBS and 2 mmol/L L-glutamine.
An additional 2 lines were from the NCI60 cell line panel including melanomas, MALME-3M and SK-MEL-2. Pooled donor human umbilical vein endothelial cells (HUVEC, Lonza, cat. CC-2519) and human mesenchymal stem cells (hMSC, Lonza, cat. PT-2501) were purchased from Lonza (Walkersville, MD).
PDMR cell lines were grown in complete medium (DC medium): Dulbecco's modified Eagle's medium (DMEM)/F12 supplemented with 5% fetal bovine serum (FBS), 2 mM L-glutamine, 100 U/mL penicillin and 100 µg/ml streptomycin, 0.4 µg/ml hydrocortisone, 10 ng/ml epidermal growth factor (EGF) recombinant human protein, 24 µg/mL adenine, and 0.1 mg/mL primocin. During culture from frozen stock vials, PDMR cells were cultured in the same medium containing 10 µM Y-27632 (see Table 3). The PDCs were cultured in complete DMEM/F12 media without 10 microM Y-27632 dihydrochloride for at least two passages prior to the screen. The pooled donor HUVEC and hMSC were cultured in endothelial cell growth medium 2 (PromoCell, Heidelberg, Germany, cat. C-22011) and mesenchymal stem cell growth medium 2 (PromoCell, cat. C-28009), respectively. For all experiments, HUVEC and hMSC were used at passages </=5.
For the pre-screen, cell seeding densities were determined from a titration spanning the range from 5,000 to 313 cells per well. The mct-spheroids including 60% malignant cells, 25% HUVEC and 15% MSC dispensed as a mixture into U-bottom Ultra-Low Attachment 384-well plates (Corning, NY)
High-throughput Drug Combination Screening.
Prior to their inoculation into 384-well plates, malignant cells, HUVEC, and hMSC were removed from T flasks using TrypLE express (Thermo Fisher Scientific, cat. 12605036) and harvested by centrifugation for 5 min at 233 x g. […]

The structures appear in SMILES notation. pIC50: −log10 of the molar value. “And” between values parts separate entries of the source, which are not always exact repeats. Identical values can stand only once.
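Also: spheroids exposed to drugs for 7 days.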

`CC(=O)Nc1cccc(-n2c(=O)n(C3CC3)c(=O)c3c(Nc4ccc(I)cc4F)n(C)c(=O)c(C)c32)c1`: the viability, T/C (in general, the result in the treated group divided by that in the control group, in per cent) (compound 94.9 pM) is 89.9% and 91.8%; the viability, T/C (compound 0.0003 µM) is 93.7% and 106%; the viability, T/C (compound 0.000949 µM) is 72.7% and 67.4%; the viability, T/C (compound 0.003 µM) is 71.1% and 79.3%; the viability, T/C (compound 0.00949 µM) is 34.1% and 44.1%; the viability, T/C (compound 0.03 µM) is 21.4% and 26.3%. The pIC50 – broadly, the negative decadic logarithm of the IC50, by convention in mol/L – (curve of compound) was 8.25 and 8.07.
`CC(C)(C)c1nc(-c2cccc(NS(=O)(=O)c3c(F)cccc3F)c2F)c(-c2ccnc(N)n2)s1`: the viability, T/C (compound 0.0316 µM) was 116% and 110%; the viability, T/C (compound 0.1 µM) was 134% and 144%; the viability, T/C (compound 0.316 µM) was 131% and 137%; the viability, T/C (compound 1 µM) is 132% and 150%; the viability, T/C (compound 3.16 µM) was 99% and 94.1%; the viability, T/C (compound 10 µM) was 53.2% and 71.4%. Moreover, the pIC50 (curve of compound) was less than 5.00.
In the case of `CC(C)CC(NC(=O)C(Cc1ccccc1)NC(=O)c1cnccn1)B(O)O` (stereo not given), the viability, T/C is 90.9% and 107% (compound 31.6 pM); 97.5% and 90.8% (compound 0.0001 µM); 91% and 116% (compound 0.000316 µM); 88.1% and 106% (compound 0.001 µM); 89.5% and 109% (compound 0.00316 µM); 73.2% and 71.1% (compound 0.01 µM). The pIC50 (curve of compound) is less than 8.00.
`CC(C)CC(NC(=O)CNC(=O)c1cc(Cl)ccc1Cl)B1OC(=O)CC(CC(=O)O)(C(=O)O)O1` (stereo not given): the viability, T/C was 86.2% and 83.8% (compound 0.000316 µM); 106% and 95.6% (compound 0.00316 µM); 92.6% and 72.9% (compound 0.01 µM); 74.9% and 77% (compound 0.0316 µM); 74.5% and 84.2% (compound 0.1 µM). The negative logarithm of the IC50 (pIC50) (curve of compound) was less than 7.00.
As to `CC(C)NCC(C(=O)N1CCN(c2ncnc3c2C(C)CC3O)CC1)c1ccc(Cl)cc1` (stereo not given), the viability, T/C was 87% [middle of 10 runs] (compound 3 µM) and 86.8% [middle of 10 runs] (compound 30 µM). For the same molecule, the pIC50 (compound alone, run of 02/28/2020) was less than 4.52.
In the case of `CC(C)n1nc(-c2ccc3oc(N)nc3c2)c2c(N)ncnc21`, the viability, T/C (compound 0.001 µM) is 104% and 100%; the viability, T/C (compound 0.00316 µM) is 94.8% and 95.9%; the viability, T/C (compound 0.01 µM) is 112% and 97.5%; the viability, T/C (compound 0.0316 µM) is 78.9% and 93.1%; the viability, T/C (compound 0.1 µM) is 74.1% and 61.6%. The pIC50 (curve of compound) is less than 7.00.
Consider `CCCS(=O)(=O)Nc1ccc(F)c(C(=O)c2c[nH]c3ncc(-c4ccc(Cl)cc4)cc23)c1F`, for which the viability, T/C (compound 0.316 µM) was 99.3% and 108%; the viability, T/C (compound 1 µM) was 91.4% and 91.7%; the viability, T/C (compound 3.16 µM) was 105% and 126%; the viability, T/C (compound 10 µM) is 91.9% and 93%; the viability, T/C (compound 31.6 µM) was 114% and 129%; the viability, T/C (compound 100 µM) is 132% and 140%. In addition, the negative logarithm of the IC50 (pIC50) (curve of compound) is less than 4.00.
Regarding `COC1CC2CCC(C)C(O)(O2)C(=O)C(=O)N2CCCCC2C(=O)OC(C(C)CC2CCC(OCCO)C(OC)C2)CC(=O)C(C)C=C(C)C(O)C(OC)C(=O)C(C)CC(C)C=CC=CC=C1C` (stereo not given), the viability, T/C is, setting by setting: (compound 0.000316 µM) 98.9% and 86.7%; (compound 0.00316 µM) 88.3% and 111%; (compound 0.01 µM) 76.2% and 91.2%; (compound 0.0316 µM) 89.6% and 75.7%; (compound 0.1 µM) 71.5% and 82.5%. For the same molecule, the pIC50 (curve of compound) was less than 7.00.
On to `COc1c(OCCCN2CCOCC2)ccc2c3n(c(=NC(=O)c4cnc(N)nc4)nc12)CCN3`, for which the viability, T/C was 95.7% and 91.3% (compound 0.00316 µM); 80.9% and 100% (compound 0.01 µM); 81.7% and 72.2% (compound 0.0316 µM); 48.8% and 62.1% (compound 0.1 µM); 43.9% and 52.3% (compound 0.316 µM); 33.8% and 44.4% (compound 1 µM). For the setting “curve of compound”, the negative-log IC50 (pIC50) was 6.95 and 6.50.
As for `Cc1nc(NC(=O)N2CCCC2C(N)=O)sc1-c1ccnc(C(C)(C)C(F)(F)F)c1` (stereo not given), the viability, T/C is 104% and 89.1% (compound 0.0316 µM); 79.9% and 74% (compound 0.1 µM); 91% and 80.8% (compound 0.316 µM); 81.2% and 80.4% (compound 1 µM); 79.6% and 74% (compound 3.16 µM); 61.9% and 50% (compound 10 µM). The pIC50 (curve of compound) is < 5.00 and 5.00.
In the case of `Cn1cnc2c(F)c(Nc3ccc(Br)cc3Cl)c(C(=O)NOCCO)cc21`, the viability, T/C (compound 0.00949 µM) was 89.7% and 85.4%; the viability, T/C (compound 0.03 µM) was 76.2% and 71.8%; the viability, T/C (compound 0.0949 µM) is 45.6% and 51.8%; the viability, T/C (compound 0.3 µM) was 32.3% and 33.5%; the viability, T/C (compound 0.949 µM) was 20.3% and 21.6%; the viability, T/C (compound 3 µM) is 17.2% and 18.4%. Moreover, where the note is “curve of compound”, the pIC50 is 7.05 and 6.97.
